In article PMC9554468, “Assessing potency and binding kinetics of soluble adenylyl cyclase (sAC) inhibitors to maximize therapeutic potential” (Frontiers in Physiology, 2022):
Values joined by “and” are separate entries in the source; they are usually repeats but may differ in a detail not shown here. Identical values can stand only once.

The compounds below were run against T1, sAC in 4-4 cells (HEK293 cells that stably overexpress sACt) (Rattus norvegicus, UniProt Q9Z286) (assay: cellular adenylyl cyclase activity assay (cAMP accumulation) in sAC overexpressing 4-4 cells). Settings: 10 min preincubation, 500 μM IBMX 5 min, 37°C.
T1 construct: HEK293 cells that stably overexpress sACt; expressed in transfected cells
T1 sequence (Q9Z286 1-469 limits assumed): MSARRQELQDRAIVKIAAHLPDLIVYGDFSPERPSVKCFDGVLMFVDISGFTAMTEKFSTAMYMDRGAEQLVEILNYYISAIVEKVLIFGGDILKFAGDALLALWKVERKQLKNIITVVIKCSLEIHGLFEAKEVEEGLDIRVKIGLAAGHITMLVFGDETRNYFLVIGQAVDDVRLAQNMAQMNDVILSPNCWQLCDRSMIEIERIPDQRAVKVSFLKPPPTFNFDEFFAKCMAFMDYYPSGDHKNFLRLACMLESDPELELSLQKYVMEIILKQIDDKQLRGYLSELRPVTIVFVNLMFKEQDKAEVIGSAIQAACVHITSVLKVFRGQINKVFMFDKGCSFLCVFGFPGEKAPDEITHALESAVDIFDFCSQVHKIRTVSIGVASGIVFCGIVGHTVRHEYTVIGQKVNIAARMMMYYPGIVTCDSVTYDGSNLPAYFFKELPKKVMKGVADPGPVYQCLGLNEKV
Format: cell-based, human
Procedure: For the assay, 1 × 10^5 4-4 cells were seeded in each well of a 24-well plate and incubated for 24 h in DMEM+10% FBS media at 37°C/5% CO2. One hour before the assay the media was aspirated and replaced with 300 μL fresh media. Cells were preincubated with sAC inhibitor at the indicated concentrations or vehicle (0.7% DMSO) for 10 min at 37°C. Intracellular cAMP accumulation was initiated by addition of 500 μM IBMX (Sigma-Aldrich), and cAMP was allowed to accumulate for 5-min. Intracellular cAMP was quantitated using the Direct cAMP Elisa kit (Enzo Life Sciences) following manufacturer’s instructions. GraphPad Prism (www.graphpad.com, version 9.3.1) was used for curve fitting of the concentration-response data and determination of IC50 values.
In addition to how tightly an inhibitor binds its target, efficacy against an intracellular enzyme target is also determined by factors that are present only in the context of cells, such as membrane permeability, non-specific protein binding and compound stability in media and inside cells.

SMILES | IC50
COC(=O)[C@H]1COCCN1CCOc1ccccc1Cc1cn(C(F)F)nc1-c1cc(Cl)nc(N)n1 [TDI-11891] | 0.0023 µM
COC(=O)[C@@H]1COCCN1CCOc1ccccc1Cc1cn(C(F)F)nc1-c1cc(Cl)nc(N)n1 [TDI-11893] | 0.0194 µM and 0.019 µM
Cn1cc(Cc2ccccc2OCCN2CCOCC2)c(-c2cc(Cl)nc(N)n2)n1 [TDI-11155] | 0.0157 µM and 0.016 µM
